Data: US20250144069A1, “BILOBALIDE DERIVATIVE COMPOUNDS FOR TREATING NEUROLOGICAL DISEASES AND CANCERS” (The Chinese University of Hong Kong, priority 2023, published 2025)
Read-outs that look alike come from different tables or passages of the source.

Tests used:
Format in all cases: cell-based, human
Jurkat cells = assay: Single-dose CCK-8 cell viability screening (suspension cells); settings: Homo sapiens, Jurkat, 48 h
Method: (§1) In this example, the anti-cancer properties of the BB analogues described in Table 1d were evaluated. Single-dose screening approach is used for initial testing to assess the cytotoxic effect of the BB analogues (also referred to as ‘BB compounds’) on Jurkat cells (human T cell leukaemia cells) and A549 cells (human lung cancer cells).
Method for Suspension Cells (Jurkat Cells)
5000 cells/90 uL were seeded in 96-well plates. 10 uL of 500 uM compound (10×) was added to each well in 6 replicates. The following controls were prepared.
Blank control: 10 uL 1% DMSO in media with no cells per well.
Positive control: 10 uL of 100 uM 5-flurouracil (10×) per well.
Negative control: 10 uL of 1% DMSO in media (10×) per well.
Each 96-well plate included 7 BB analogues and the complete set of controls (in 6 replicates).
(§2) Cells were incubated at 37° C.+5% CO2 for 46 hours. 10 uL of CCK8 solution was added to each well. Cells were then incubated at 37° C.+5% CO2 for 2 hours. Absorbance at 450 nm was measured using a multiplate reader.
(§3) Viability was calculated using the equation: […]
(§4) The benchmark in Table 2 was used to define the activities of each compound.

A549 cells = assay: Single-dose CCK-8 cell viability screening (adherent cells); settings: Homo sapiens, A549, 48 h
Method: as §1
(§5) Method for Adherent Cells (A549 Cells)
(§6) In this example, 5000 cells/100 uL were seeded in 96-well plates and incubate at 37° C.+5% CO2 overnight. Media were replaced with 100 uL of 50 uM compound per well in 6 replicates. The following controls were prepared.
(§7) Blank control: 100 uL 0.1% DMSO in media with no cells per well.
(§8) Positive control: 100 uL of 10 uM 5-flurouracil per well.
(§9) Negative control: 100 uL of 0.1% DMSO in media per well.
(§10) Each 96-well plate included 7 compounds and the complete set of controls (in 6 replicates).
as §2, §3, §4

[1] = as above; settings: Homo sapiens, average of A549 and Jurkat % viability, 50 uM, 48 h
Method: as §1, §5, §6, §7, §8, §9, §10, §2, §3, §4

[2] = read-out: % Viability (50 uM, 48 h) Jurkat
[3] = read-out: % Viability (50 uM, 48 h) A549
[4] = Jurkat cells, 50 uM, CCK-8, read-out: % Viability (50 uM, 48 h) Jurkat
[5] = A549 cells, 50 uM, 48 h, CCK-8, read-out: % Viability (50 uM, 48 h) A549

SMILES	viability at 50 µM (Jurkat cells; [2])	viability at 50 µM (A549 cells; [3])	viability at 50 µM ([1]; A549, 48 h)	viability at 50 µM (Jurkat cells; [4])	viability at 50 µM (A549 cells; [5])	viability at 50 µM [1]	viability at 50 µM (Jurkat cells; read-out: % Viability (50 uM, 48 h) Jurkat, Jurkat cells, 50 uM, 48 h, CCK-8)	viability at 50 µM (A549 cells; read-out: % Viability (50 uM, 48 h) A549, A549 cells, 50 uM, 48 h, CCK-8)
CC(C)(C)[C@]1(O)C[C@@H]2OC(=O)C[C@@]23C(=O)O[C@@H]2N(c4cccc(C(F)(F)F)c4)C(=O)[C@H](OC(=O)c4ccccc4)[C@]213 [JW100, (3aS,5aS,8R,9R,10aS)-9-(tert-butyl)-9-hydroxy-2,4,7-trioxo-6-(3-(trifluoromethyl)phenyl)octahydro-4H,9H-furo [3″,2″:2′,3′]cyclopenta [1′,2′:3,4]furo [2,3-b]pyrrol-8-yl benzoate]	68.2%	54%	61.1%	–	–	–	–	–
CC(C)(C)[C@]1(O)C[C@@H]2OC(=O)C[C@@]23C(=O)O[C@@H]2N(c4ccc(O)cc4)C(=O)[C@H](OC(=O)c4ccccc4)[C@]213 [JW103, (3aS,5aS,8R,9R,10aS)-9-(tert-butyl)-6-(4-hydroxyphenyl)-9-hydroxy-2,4,7-trioxodecahydrofuro [3″,2″:2′,3′]cyclopenta [1′,2′:3,4]furo [2,3-b]pyrrol-8-yl benzoate]	–	–	92.2%	82.2%	102%	–	–	–
CC(C)(C)[C@]1(O)C[C@@H]2OC(=O)C[C@@]23C(=O)O[C@@H]2N(c4ccc(C#N)cc4)C(=O)[C@H](OC(=O)c4ccccc4)[C@]213 [JW107, (3aS,5aS,8R,9R,10aS)-9-(tert-butyl)-6-(4-cyanophenyl)-9-hydroxy-2,4,7-trioxodecahydrofuro [3″,2″:2′,3′]cyclopenta [1′,2′:3,4]furo [2,3-b]pyrrol-8-yl benzoate]	–	–	72.7%	70.2%	75.2%	–	–	–
CC(C)(C)[C@]1(O)C[C@@H]2OC(=O)C[C@@]23C(=O)O[C@@H]2N(c4ccccc4)C(=O)[C@H](O)[C@]213 [JW116, (3aS,5aS,8R,8aS,9R,10aS)-9-(tert-butyl)-8,9-dihydroxy-6-phenyltetrahydro-4H,9H-furo[3″,2″:2′,3′]cyclopenta[1′,2′:3,4]furo[2,3-b]pyrrole-2,4,7(3H,8H)-trione]	105%	77.7%	91.2%	–	–	–	–	–
CC(C)(C)[C@]1(O)C[C@@H]2OC(=O)C[C@@]23C(=O)O[C@@H]2N(C[C@H]4CCCO4)C(=O)[C@H](OC(=O)c4ccccc4)[C@]213 [P-5, (3aS,5aS,8R,8aS,9R,10aS)-9-(tert-butyl)-9-hydroxy-2,4,7-trioxo-6-(((R)-tetrahydrofuran-2-yl)methyl) octahydro-4H,9H-furo [3″,2″:2′,3′]cyclopenta [1′,2′:3,4]furo[2,3-b]pyrrol-8-yl benzoate]	–	–	87.2%	75.7%	98.7%	–	–	–
CC(C)(C)[C@]1(O)C[C@@H]2OC(=O)C[C@@]23C(=O)O[C@@H]2N(c4cc(F)cc(F)c4)C(=O)[C@H](OC(=O)c4ccccc4)[C@]213 [P-19, (3aS,5aS,8R,8aS,9R,10aS)-9-(tert-butyl)-9-hydroxy-2,4,7-trioxo-6-(3,5-difluoro-phenyl)octahydro-4H,9H-furo [3″,2″:2′,3′]cyclopenta [1′,2′:3,4]furo [2,3-b]pyrrol-8-yl benzoate]	–	–	60.2%	70.2%	50.2%	–	–	–
CC(C)(C)[C@]1(O)C[C@@H]2OC(=O)C[C@@]23C(=O)O[C@@H]2N(c4ccc(F)cc4)C(=O)[C@H](OC(=O)c4ccccc4)[C@]213 [P-28, (3aS,5aS,8R,9R,10aS)-9-(tert-butyl)-9-hydroxy-2,4,7-trioxo-6-(4-fluorophenyl)octahydro-4H,9H-furo [3″,2″:2′,3′]cyclopenta [1′,2′:3,4]furo [2,3-b]pyrrol-8-yl benzoate]	69.2%	76.2%	72.7%	–	–	–	–	–
Cc1ccc(N2C(=O)[C@H](OC(=O)c3ccccc3)[C@@]34[C@@H]2OC(=O)[C@@]32CC(=O)O[C@H]2C[C@@]4(O)C(C)(C)C)cc1 [P-30, (3aS,5aS,8R,9R,10aS)-9-(tert-butyl)-9-hydroxy-2,4,7-trioxo-6-(toluyl)octahydro-4H,9H-furo [3″,2″:2′,3′]cyclopenta [1′,2′:3,4]furo [2,3-b]pyrrol-8-yl benzoate]	–	–	59.1%	61.3%	56.9%	–	–	–
Cc1cccc(N2C(=O)[C@H](OC(=O)c3ccccc3)[C@@]34[C@@H]2OC(=O)[C@@]32CC(=O)O[C@H]2C[C@@]4(O)C(C)(C)C)c1 [P-33, (3aS,5aS,8R,9R,10aS)-9-(tert-butyl)-9-hydroxy-2,4,7-trioxo-6-(3-methylphenyl)octahydro-4H,9H-furo [3″,2″:2′,3′]cyclopenta [1′,2′:3,4]furo [2,3-b]pyrrol-8-yl benzoate]	–	–	63.5%	66%	61.1%	–	–	–
Cc1ccccc1N1C(=O)[C@H](OC(=O)c2ccccc2)[C@@]23[C@@H]1OC(=O)[C@@]21CC(=O)O[C@H]1C[C@@]3(O)C(C)(C)C [P-34, (3aS,5aS,8R,9R,10aS)-9-(tert-butyl)-9-hydroxy-2,4,7-trioxo-6-(2-methylphenyl)octahydro-4H,9H-furo [3″,2″:2′,3′]cyclopenta [1′,2′:3,4]furo [2,3-b]pyrrol-8-yl benzoate]	–	–	77%	73.8%	80.2%	–	–	–
CC(C)(C)[C@]1(O)C[C@@H]2OC(=O)C[C@@]23C(=O)O[C@@H]2NC(=O)[C@H](OC(=O)c4ccccc4)[C@]213 [XBB-004, (3aS,5aS,8R,8aS,9R,10aS)-9-(tert-butyl)-9-hydroxy-2,4,7-trioxooctahydro-4H,9H-furo[3″,2″:2′,3′]cyclopenta[1′,2′:3,4]furo[2,3-b]pyrrol-8-yl benzoate]	95%	98.5%	–	–	–	96.7%	–	–
C=C(C)[C@@]1(C)C[C@@H]2OC(=O)C[C@@]23C(=O)O[C@@H]2OC(=O)[C@H](OC(C)=O)[C@]213 [XBB-009]	107%	103%	–	–	–	105%	–	–
CC(=O)O[C@H]1C(=O)N[C@H]2OC(=O)[C@]34CC(=O)O[C@H]3C=C(C(C)(C)C)[C@@]214 [XBB-010, (3aS,5aS,8R,8aS,10aS)-9-(tert-butyl)-2,4,7-trioxo-2,3,5a,6,7,8-hexahydro-4H,10aH-furo[3″,2″:2′,3′]cyclopenta[1′,2′:3,4]furo[2,3-b]pyrrol-8-yl acetate]	–	–	114%	–	–	–	115%	112%
C=C(C)[C@@]1(C)C[C@@H]2OC(=O)C[C@@]23C(=O)O[C@@H]2NC(=O)[C@H](O)[C@]213 [XBB-013]	107%	100%	–	–	–	104%	–	–
CC(C)(C)[C@]1(O)C[C@@H]2OC(=O)C[C@@]23C(=O)O[C@@H]2N(Cc4ccccc4)C(=O)[C@H](OC(=O)c4ccccc4)[C@]213 [XBB-016]	–	–	106%	107%	105%	–	–	–
COc1ccc(CN2C(=O)[C@H](OC(=O)c3ccccc3)[C@@]34[C@@H]2OC(=O)[C@@]32CC(=O)O[C@H]2C[C@@]4(O)C(C)(C)C)c(OC)c1 [XBB-018, (3aS,5aS,8R,8aS,9R,10aS)-6-(2,4-dimethoxy-benzyl-9-(tert-butyl)-9-hydroxy-2,4,7-trioxooctahydro-4H,9H-furo [3″,2″:2′,3′]cyclopenta [1′,2′:3,4]furo [2,3-b]pyrrol-8-yl benzoate]	–	–	94.5%	102%	86.5%	–	–	–
CC(C)(C)OC(=O)N1CCC(CCN2C(=O)[C@H](OC(=O)c3ccccc3)[C@@]34[C@@H]2OC(=O)[C@@]32CC(=O)O[C@H]2C[C@@]4(O)C(C)(C)C)CC1 [XBB-023, tert-butyl 4-(2-((3aS,5aS,8R,8aS,9R,10aS)-8-(benzoyloxy)-9-(tert-butyl)-9-hydroxy-2,4,7-trioxohexahydro-4H,9H-furo[3″,2″:2′,3′]cyclopenta[1′,2′:3,4]furo[2,3-b]pyrrol-6(5aH)-yl)ethyl)piperidine-1-carboxylate]	–	–	71.7%	71.3%	72.1%	–	–	–
CC(C)(C)OC(=O)N1CCC(CCCN2C(=O)[C@H](OC(=O)c3ccccc3)[C@@]34[C@@H]2OC(=O)[C@@]32CC(=O)O[C@H]2C[C@@]4(O)C(C)(C)C)CC1 [XBB-025]	–	–	91.7%	83.3%	100%	–	–	–
